Values quoted from earlier work in article PMC7941644, “Identification and Development of Therapeutics for COVID-19” (ArXiv, 2021).
Counter-ions that a name gives are not always drawn. Like-named read-outs stand apart in the source and are kept apart here.

Experiments:
COVID-19 [1] = settings: ivermectin preliminary; HCQ and lopinavir-ritonavir ref 144
SARS-CoV-2 [2] = tested on: SARS-CoV-2; set-up: method as in PMID 32251768; settings: Vero-hSLAM; at concentrations much higher than existing dosage guidelines
COVID-19 [3] = tested on: COVID-19; set-up: method as in PMID 33662102; settings: 400 patients
COVID-19 [4] = tested on: COVID-19; set-up: method as in PMID 33175880
COVID-19 [5] = tested on: COVID-19; set-up: method as in PMID 33065103
COVID-19 [6] = tested on: COVID-19
COVID-19 [7] = settings: p < 0.001
COVID-19 [8] = tested on: COVID-19; remark: listed apart in the source
COVID-19 [9] = settings: significant when intubated patients excluded
COVID-19 [10] = settings: 95% CI 0.376–0.547, p < 0.001
COVID-19 [11] = tested on: COVID-19; remark: listed apart in the source
COVID-19 [12] = tested on: COVID-19; remark: listed apart in the source
COVID-19 [13] = tested on: COVID-19; remark: listed apart in the source
SARS-CoV-1 [14] = settings: mouse, in vivo
COVID-19 [15] = tested on: COVID-19; set-up: method as in ref 210; combination ref 208; settings: phase 2 portion; bamlanivimab alone ref 210; combination ref 208
COVID-19 [16] = tested on: COVID-19; set-up: method as in ref 145 = [145]; 145. August 6, 2021: Early Treatment of COVID-19 with Repurposed Therapies: The TOGETHER Adaptive Platform Trial (Edward Mills, PhD, FRCP) Rethinking Clinical Trials ( 2021 - 08 - 11 ) https://rethink; settings: placebo group 107; preliminary analysis as of August 6, 2021
COVID-19 [17] = tested on: COVID-19; set-up: method as in PMID 33031764
SARS-CoV-2 [18] = tested on: SARS-CoV-2
SARS-CoV-2 [19] = tested on: SARS-CoV-2; set-up: method as in PMID 32142651; settings: lung cells in vitro
IL-12 = tested on: IL-12; set-up: method as in PMID 8902882
COVID-19 [20] = tested on: COVID-19; set-up: method as in doi:10.1101/2020.06.22.20137273
IL-10 = tested on: IL-10; set-up: method as in PMID 8902882
COVID-19 [21] = tested on: COVID-19; set-up: method as in PMID 32445440
MERS-CoV = settings: cell culture assays
COVID-19 [22] = tested on: COVID-19; set-up: method as in PMID 32275812; settings: of the 53 patients evaluated; 200 mg IV day 1, 100 mg/day for 9 days; no control group
COVID-19 [23] = tested on: COVID-19; remark: listed apart in the source
COVID-19 [24] = tested on: COVID-19; set-up: method as in PMID 32821939; settings: moderate COVID-19
SARS-CoV-1 [25] = settings: cell culture assays

For `CC[C@H](C)[C@H]1O[C@]2(CC[C@@H]1C)C[C@@H]1C[C@@H](C/C=C(\C)[C@@H](O[C@H]3C[C@H](OC)[C@@H](O[C@H]4C[C@H](OC)[C@@H](O)[C@H](C)O4)[C@H](C)O3)[C@@H](C)/C=C/C=C3\CO[C@@H]4[C@H](O)C(C)=C[C@@H](C(=O)O1)[C@]34O)O2` [ivermectin], the “effect on COVID-19 outcomes” value (COVID-19 [1]) is listed as “no effect on COVID-19 outcomes”, the “inhibition of viral replication” value (SARS-CoV-2 [2]) is listed as “inhibit viral replication” and the duration of symptoms (COVID-19 [3]) is listed as “no effect on the duration of symptoms”. For the same compound, the “clinical outcomes or viral clearance” value (COVID-19 [4]) was “no difference in clinical outcomes or viral clearance” and the all-cause mortality (COVID-19 [5]) was “reduced all-cause mortality”.
In the case of “TCZ: humanized monoclonal antibody that binds the insoluble and soluble receptor of IL-6”, the patients dying (COVID-19 [6]; 2 of 62 admitted after TCZ available, 11 of 23 (47.8%) before) is listed as 3.2%, the “multivariate HR, survival” value (COVID-19 [6]; CI 0.004–0.347, p = 0.004) is listed as 0.035 and the “HR, survivorship” value (COVID-19 [7]; 19 studies) is listed as 0.41. For the same compound, the “HR, survivorship” value (COVID-19 [7]; excluding studies that administered a steroid alongside TCZ) was 0.04, the “progression to invasive medical ventilation” value (COVID-19 [8]; SOC 32%, p = 0.006) was 0% and the mortality (COVID-19 [8]; SOC 48%, p = 0.066) was 25%. For the same compound, the “progression to death and/or ICU admission” value (COVID-19 [8]; SOC 72%, p = 0.002) was 25%, the “mortality, TCZ vs SOC” value (COVID-19 [9]) was “did not differ” and the “odds ratio of mortality” value (COVID-19 [10]) was 0.453. The “change in symptoms following treatment” value (COVID-19 [11]) was “rapid improvement in symptoms”, the “rate ratio, hospital discharge within 28 days” value (COVID-19 [12]; 95% CI 1.12–1.34, p < 0.0001) was 1.22 and the “rate ratio, 28-day mortality” value (COVID-19 [12]; RECOVERY combined with seven smaller randomized control trials, 95% CI 0.79–0.96, p = 0.005) was 0.87. For the same compound, the 28-day mortality (COVID-19 [12]; SOC alone 33%) was 29%, the “rate ratio, 28-day mortality” value (COVID-19 [12]; TCZ vs SOC, 95% CI 0.77–0.96, p = 0.007) was 0.86 and the “reduction in 28-day mortality” value (COVID-19 [12]; combined analysis of RECOVERY with smaller RCTs) was 13%. The “probability of hospital discharge within 28 days” value (COVID-19 [12]; living patients, SOC 47%) was 54%, the “participants with adverse reactions determined to be associated with the intervention” value (COVID-19 [12]; out of 2,022 participants receiving TCZ) was “three” and the “adjusted HR, progression to invasive medical ventilation and/or death” value (COVID-19 [13]; 14-day period, CI 0.40–0.92, p = 0.020) was 0.61. For the same compound, the death rate (COVID-19 [13]; control 20%) was 7% and the secondary infections (COVID-19 [13]; control group 4%, p < 0.0001) was 24%.
For poly(I:C), the “effect when administered prior to infection” value (SARS-CoV-1 [14]) is given as “protective effects”.
For “bamlanivimab: human mAb derived from convalescent plasma of a recovered COVID-19 patient”, the “effect on viral load” value (COVID-19 [15]) is given as “able to accelerate the reduction in viral load”.
For `COCCCC/C(=N\OCCN)c1ccc(C(F)(F)F)cc1` [fluvoxamine], the “patients progressed to hospitalization for COVID-19” value (COVID-19 [16]) is listed as 74.
In the case of lopinavir-ritonavir, the “effect on COVID-19 outcomes” value (COVID-19 [1]) is given as “no effect” and the “effect on COVID-19-related mortality” value (COVID-19 [17]) is given as “no effect”.
For `O=c1c2ccccc2[se]n1-c1ccccc1` [ebselen], the “antiviral effect in SARS-CoV-2-infected Vero cells” value (SARS-CoV-2 [18]) is listed as “strongest potency in reducing the viral load”.
In the case of `CN(C)C(=O)COC(=O)Cc1ccc(OC(=O)c2ccc(NC(=N)N)cc2)cc1` [camostat mesylate], the “block of viral entry” value (SARS-CoV-2 [19]) is given as “block the entry of SARS-CoV-2 into lung cells”.
For `C[C@@H]1C[C@H]2[C@@H]3CCC4=CC(=O)C=C[C@]4(C)[C@@]3(F)[C@@H](O)C[C@]2(C)[C@@]1(O)C(=O)CO` [dexamethasone, 9α-fluoro-16α-methylprednisolone], the “effect on IL-12 production” value (IL-12) is given as “dose-dependent inhibition of IL-12 production”, the 28-day mortality rate (COVID-19 [20]; all patients, 6 mg per day for up to 10 days, SOC 24.6%, p < 0.001) is given as 21.6% and the 28-day mortality (COVID-19 [20]; patients breathing independently at randomization, SOC 14.0%) is given as 17.8%. For the same compound, the 28-day mortality (COVID-19 [20]; patients receiving oxygen supplementation at randomization, SOC 26.2%) was 23.3%, the 28-day mortality (COVID-19 [20]; patients ventilated at randomization, SOC 41.4%) was 29.3% and the “effect on IL-10” value (IL-10) was “not to affect IL-10”.
In the case of `CCC(CC)COC(=O)[C@H](C)N[P@](=O)(OC[C@H]1O[C@@](C#N)(c2ccc3c(N)ncnn23)[C@H](O)[C@@H]1O)Oc1ccccc1` [remdesivir], the “hazard ratio for death by 14 days” value (COVID-19 [21]; 95% CI 0.36 to 0.83) is given as 0.55, the “hazard ratio for death at day 29” value (COVID-19 [21]; 95% CI 0.52 to 1.03) is given as 0.73 and the “rate ratio for recovery” value (COVID-19 [21]; 95% CI 1.12 to 1.49, p < 0.001) is given as 1.29. For the same compound, the serious adverse events (COVID-19 [21]; 131 of 532 patients, placebo 31.6%) was 24.6%, the “rate ratio for recovery” value (COVID-19 [21]; patients with severe disease, 95% CI 1.12 to 1.52) was 1.31 and the recovery period (COVID-19 [21]; patients with severe disease, versus 18) was 11 days. For the same compound, the “Kaplan-Meier estimate of mortality by 14 days” value (COVID-19 [21]; placebo 11.9%) was 6.7%, the “Kaplan-Meier estimate of mortality at day 29” value (COVID-19 [21]; placebo 15.2%) was 11.4% and the median recovery time (COVID-19 [21]; placebo 15 days) was 10 days. The “IC50, polymerase and replication” value (MERS-CoV) was “submicromolar”, the clinical improvement (COVID-19 [22]) was 68% and the “patients who died during initial hospitalization” value (COVID-19 [23]; 2,750 patients in remdesivir group, control 303 of 2,708) was 301. For the same compound, the “overall rate ratio for death” value (COVID-19 [23]; meta-analysis of Solidarity and three other remdesivir studies, p = 0.20) was 0.91, the “rate ratio of in-hospital death” value (COVID-19 [23]; vs control, no placebo) was 0.95 and the “effect of treatment for five days relative to standard of care” value (COVID-19 [24]) was “small effect of treatment”. For the same compound, the “IC50, polymerase and replication” value (SARS-CoV-1 [25]) was “submicromolar”.
